Assays:
[1] = test system: HCV replicon in Huh7 cells; test: HCV replicon cell-based assay (FRET); design: species or system HCV strain 1b; details: Hepatitis C virus, Huh-7, 96 h, 4 days, read-out: Activity Range EC50
Excerpt: An HCV replicon whole cell system was established as described by Lohmann V, Korner F, Koch J, Herian U, Theilmann L, Bartenschlager R., Science 285(5424):110–3 (1999). This system enabled us to evaluate the effects of our HCV Protease compounds on HCV RNA replication. Briefly, using the HCV strain 1b sequence described in the Lohmann paper (Assession number:AJ238799), an HCV cDNA was generated encoding the 5′ internal ribosome entry site (IRES), the neomycin resistance gene, the EMCV (encephalomyocarditis viurs)-IRES and the HCV nonstructural proteins, NS3–NS5B, and 3′ non-translated region (NTR). In vitro transcripts of the cDNA were transfected into the human hepatoma cell line, Huh7. […] Resulting cell lines were characterized for positive and negative strand RNA production and protein production over time.
Huh7 cells, constitutively expressing the HCV replicon, were grown in Dulbecco's Modified Eagle Media (DMEM) containing 10% Fetal calf serum (FCS) and 1 mg/ml G418 (Gibco-BRL). Cells were seeded the night before (1.5×10^4 cells/well) in 96-well tissue-culture sterile plates. Compound and no compound controls were prepared in DMEM containing 4% FCS, 1:100 Penicillin/Streptomysin, 1:100 L-glutamine and 5% DMSO in the dilution plate (0.5% DMSO final concentration in the assay). Compound/DMSO mixes were added to the cells and incubated for 4 days at 37° C. After 4 days, plates were rinsed thoroughly with Phosphate-Buffered Saline (PBS) (3 times 150 μl). The cells were lysed with 25 μl of a lysis assay reagent containing the FRET peptide (RET S1, as described for the in vitro enzyme assay). The lysis assay reagent was made from 5× cell Luciferase cell culture lysis reagent (Promega #E153A) diluted to 1× with distilled water, NaCl added to 150 mM final, the FRET peptide diluted to 10 μM final from a 2 mM stock in 100% DMSO. The plate was then placed into the Cytofluor 4000 instrument which had been set to 340 nm excitation/490 nm emission, automatic mode for 21 cycles and the plate read in a kinetic mode. EC50 determinations were carried out as described for the IC50 determinations. […]
The percentage inhibition was calculated using the formula below: […]
The values were graphed and analyzed using XLFit to obtain the EC50 value.

[2] = target: T1, HCV NS3/4A protease complex (UniProt P27958, C1454S/C1711G, species not given); test: Recombinant HCV NS3/4A protease complex FRET peptide assay (strain not stated); type: biochemical; details: NS3/4A protease enzyme assay, read-out: Activity Range IC50
T1 construct: fused on or other part: Three-lysine solubilising tail at the C-terminus of NS4A
Excerpt: The purpose of this in vitro assay was to measure the inhibition of HCV NS3 protease complexes, derived from the BMS strain, H77 strain or J416S strain, as described below, by compounds of the present invention. This assay provides an indication of how effective compounds of the present invention would be in inhibiting HCV proteolytic activity.
Serum from an HCV-infected patient was obtained from Dr. T. Wright, San Francisco Hospital. An engineered full-length cDNA (compliment deoxyribonucleic acid) template of the HCV genome (BMS strain) was constructed from DNA fragments obtained by reverse transcription-PCR (RT-PCR) of serum RNA (ribonucleic acid) and using primers selected on the basis of homology between other genotype 1a strains. From the determination of the entire genome sequence, a genotype 1a was assigned to the HCV isolate according to the classification of Simmonds et al. (See P Simmonds, K A Rose, S Graham, S W Chan, F McOmish, B C Dow, E A Follett, P L Yap and H Marsden, J. Clin. Microbiol., 31(6), 1493–1503 (1993)). […] The infectious clones, H77 (1a genotype) and J4L6S (1b genotype) were obtained from R. Purcell (NIH) and the sequences are published in Genbank (AAB67036, see Yanagi, M., Purcell, R. H., Emerson, S. U. and Bukh, J. Proc. Natl. Acad. Sci. U.S.A. 94(16), 8738–8743 (1997); AF054247, see Yanagi, M., St Claire, M., Shapiro, M., Emerson, S. U., Purcell, R. H. and Bukh, J, Virology 244 (1), 161–172. (1998)).
The H77 and J4L6S strains were used for production of recombinant NS3/4A protease complexes. DNA encoding the recombinant HCV NS3/4A protease complex (amino acids 1027 to 1711) for these strains were manipulated as described by P. Gallinari et al. (see Gallinari P, Paolini C, Brennan D, Nardi C, Steinkuhler C, De Francesco R. Biochemistry. 38(17):5620–32, (1999)). Briefly, a three-lysine solubilizing tail was added at the 3′-end of the NS4A coding region. The cysteine in the P1 position of the NS4A–NS4B cleavage site (amino acid 1711) was changed to a glycine to avoid the proteolytic cleavage of the lysine tag. Furthermore, a cysteine to serine mutation was introduced by PCR at amino acid position 1454 to prevent the autolytic cleavage in the NS3 helicase domain. The variant DNA fragment was cloned in the pET21b bacterial expression vector (Novagen) and the NS3/4A complex was expressed in Escherichia. coli strain BL21 (DE3) (Invitrogen) following the protocol described by P. Gallinari et al. (see Gallinari P, Brennan D, Nardi C, Brunetti M, Tomei L, Steinkuhler C, De Francesco R., J Virol. 72(8):6758–69 (1998)) with modifications. Briefly, the NS3/4A protease complex expression was induced with 0.5 millimolar (mM) Isopropyl β-D-1-thiogalactopyranoside (IPTG) for 22 hours (h) at 20° C. A typical fermentation (1 Liter (L)) yielded approximately 10 grams (g) of wet cell paste. The cells were resuspended in lysis buffer (10 mL/g) consisting of 25 mM N-(2-Hydroxyethyl)Piperazine-N′-(2-Ethane Sulfonic acid) (HEPES), pH 7.5, 20% glycerol, 500 mM Sodium Chloride (NaCl), 0.5% Triton X-100, 1 microgram/milliliter (“μg/mL”) lysozyme, 5 mM Magnesium Chloride (MgCl2), 1 μg/ml Dnasel, 5 mM β-Mercaptoethanol (βME), Protease inhibitor—Ethylenediamine Tetraacetic acid (EDTA) free (Roche), homogenized and incubated for 20 minutes (min) at 4° C. The homogenate was sonicated and clarified by ultra-centrifugation at 235000 g for 1 h at 4° C. Imidazole was added to the supernatant to a final concentration of 15 mM and the pH adjusted to 8.0. The crude protein extract was loaded on a Nickel—Nitrilotriacetic acid (Ni-NTA) column pre-equilibrated with buffer B (25 mM HEPES, pH 8.0, 20% glycerol, 500 mM NaCl, 0.5% Triton X-100, 15 mM imidazole, 5 mM βME). The sample was loaded at a flow rate of 1 mL/min. The column was washed with 15 column volumes of buffer C (same as buffer B except with 0.2% Triton X-100). The protein was eluted with 5 column volumes of buffer D (same as buffer C except with 200 mM Imidazole). […]

Row | SMILES | EC50 [1] [µM] | IC50 [2] [µM]
1 | C=CC1C[C@]1(NC(=O)[C@@H]1C[C@@H](Oc2nccc3cc(OC)ccc23)CN1C(=O)[C@@H](NC(=O)OC(C)(C)C)C(C)(C)C)C(=O)NS(=O)(=O)N1CCCC1 (stereo partly drawn) [Compound 18] | < 0.15 | < 0.15
2 | C=CC1C[C@]1(NC(=O)[C@@H]1C[C@@H](Oc2nc(-c3ccncc3)cc3ccccc23)CN1C(=O)[C@@H](NC(=O)OC(C)(C)C)C(C)(C)C)C(=O)NS(=O)(=O)N(C)C (stereo partly drawn) [Compound 23] | < 0.15 | < 0.15
3 | C=CC1C[C@]1(NC(=O)[C@@H]1C[C@@H](Oc2cc(-c3ccccc3)nc3cc(OC)ccc23)CN1C(=O)[C@@H](NC(=O)OC)C(C)(C)C)C(=O)NS(=O)(=O)N1CCCC1 (stereo partly drawn) [Compound 6] | 0.15 to 1.5 | < 0.15
4 | C=CC1C[C@]1(NC(=O)[C@@H]1C[C@@H](Oc2cc(-c3ccccc3)nc3cc(OC)ccc23)CN1C(=O)[C@@H](NC(=O)OC)C(C)(C)C)C(=O)NS(=O)(=O)N(C)c1ccccc1 (stereo partly drawn) [Compound 5] | < 0.15 | < 0.15
5 | C=CC1CC1(NC(=O)[C@@H]1C[C@@H](Oc2cc(-c3ccccc3)nc3cc(OC)ccc23)CN1C(=O)[C@@H](NC(=O)OC)C(C)(C)C)C(=O)NS(=O)(=O)N1CCCC1 (mixture of isomers) [Compound 8] | 0.15 to 1.5 | < 0.15
6 | C=CC1C[C@]1(NC(=O)[C@@H]1C[C@@H](Oc2nccc3ccccc23)CN1C(=O)[C@@H](NC(=O)OC(C)(C)C)C(C)(C)C)C(=O)NS(=O)(=O)N(C)C(C)C (stereo partly drawn) [Compound 22] |  | 0.15 to 1.5
7 | C=CC1C[C@]1(NC(=O)[C@@H]1C[C@@H](Oc2cc(-c3ccccc3)nc3cc(OC)ccc23)CN1C(=O)[C@@H](NC(=O)OC)C(C)(C)C)C(=O)NS(=O)(=O)N1CCC1 (stereo partly drawn) [Compound 4] | 0.15 to 1.5 | < 0.15
8 | C=CC1C[C@]1(NC(=O)[C@@H]1C[C@@H](Oc2cc(-c3ccccc3)nc3cc(OC)ccc23)CN1C(=O)[C@@H](NC(=O)OC)C(C)(C)C)C(=O)NS(=O)(=O)N(C)C (stereo partly drawn) [Compound 3] | < 0.15 | < 0.15
9 | C=CC1C[C@]1(NC(=O)[C@@H]1C[C@@H](Oc2nccc3cc(OC)ccc23)CN1C(=O)[C@@H](NC(=O)OC(C)(C)C)C(C)(C)C)C(=O)NS(=O)(=O)N(C)C(C)C (stereo partly drawn) [Compound 21] | 0.15 to 1.5 | 0.15 to 1.5
10 | C=CC1C[C@]1(NC(=O)[C@@H]1C[C@@H](Oc2nccc3cc(OC)ccc23)CN1C(=O)[C@@H](NC(=O)OC(C)(C)C)C(C)(C)C)C(=O)NS(=O)(=O)N(C)CC (stereo partly drawn) [Compound 19] | < 0.15 | < 0.15
11 | C=CC1C[C@]1(NC(=O)[C@@H]1C[C@@H](Oc2cc(-c3ccccc3)nc3cc(OC)ccc23)CN1C(=O)[C@@H](NC(=O)OC)C(C)(C)C)C(=O)NS(=O)(=O)N1CCOCC1 (stereo partly drawn) [Compound 12] |  | 0.15 to 1.5
12 | C=CC1C[C@]1(NC(=O)[C@@H]1C[C@@H](Oc2cc(-c3ccccc3)nc3cc(OC)ccc23)CN1C(=O)[C@@H](NC(=O)OC)C(C)(C)C)C(=O)NS(=O)(=O)N(C)CC (stereo partly drawn) [Compound 1] | < 0.15 | < 0.15
13 | C=CC1C[C@]1(NC(=O)[C@@H]1C[C@@H](Oc2nccc3cc(OC)ccc23)CN1C(=O)[C@@H](NC(=O)OC(C)(C)C)C(C)(C)C)C(=O)NS(=O)(=O)N(C)c1ccccc1 (stereo partly drawn) [Compound 20] | < 0.15 | < 0.15
14 | C=CC1C[C@]1(NC(=O)[C@@H]1C[C@@H](Oc2cc(-c3ccccc3)nc3cc(OC)ccc23)CN1C(=O)[C@@H](NC(=O)OC(C)(C)C)C(C)(C)C)C(=O)NS(=O)(=O)N(C)c1ccccc1 (stereo partly drawn) [Compound 16] | < 0.15 | < 0.15
15 | C=CC1C[C@]1(NC(=O)[C@@H]1C[C@@H](Oc2cc(-c3ccccc3)nc3cc(OC)ccc23)CN1C(=O)[C@@H](NC(=O)OC)C(C)(C)C)C(=O)NS(=O)(=O)N1CCN(C)CC1 (stereo partly drawn) [Compound 13] | > 1.5 | 0.15 to 1.5
16 | C=CC1C[C@]1(NC(=O)[C@@H]1C[C@@H](Oc2nccc3cc(OC)ccc23)CN1C(=O)[C@@H](NC(=O)OC(C)(C)C)C(C)(C)C)C(=O)NS(=O)(=O)N(C)C (stereo partly drawn) [Compound 17] | 0.15 to 1.5 | < 0.15
17 | C=CC1C[C@]1(NC(=O)[C@@H]1C[C@@H](Oc2cc(-c3ccccc3)nc3cc(OC)ccc23)CN1C(=O)[C@@H](NC(=O)OC)C(C)(C)C)C(=O)NS(=O)(=O)N(C)OC (stereo partly drawn) [Compound 2] | 0.15 to 1.5 | < 0.15
18 | C=CC1C[C@]1(NC(=O)[C@@H]1C[C@@H](Oc2cc(-c3ccccc3)nc3cc(OC)ccc23)CN1C(=O)[C@@H](NC(=O)OC(C)(C)C)C(C)(C)C)C(=O)NS(=O)(=O)N(C)C (stereo partly drawn) [Compound 15] | < 0.15 | < 0.15
19 | C=CC1C[C@]1(NC(=O)[C@@H]1C[C@@H](Oc2cc(-c3ccccc3)nc3cc(OC)ccc23)CN1C(=O)[C@@H](NC(=O)OC(C)(C)C)C(C)(C)C)C(=O)NS(=O)(=O)N(C)CC (stereo partly drawn) [Compound 14] | < 0.15 | < 0.15
20 | C=CC1C[C@]1(NC(=O)[C@@H]1C[C@@H](Oc2cc(-c3ccccc3)nc3cc(OC)ccc23)CN1C(=O)[C@@H](NC(=O)OC)C(C)(C)C)C(=O)NS(=O)(=O)N(C)C(C)C (stereo partly drawn) [Compound 7] | 0.15 to 1.5 | < 0.15
21 | C=CC1C[C@]1(NC(=O)[C@@H]1C[C@@H](Oc2cc(-c3ccccc3)nc3cc(OC)ccc23)CN1C(=O)[C@@H](NC(=O)OC)C(C)(C)C)C(=O)NS(=O)(=O)N1CCCCO1 (stereo partly drawn) [Compound 11] | > 1.5 | 0.15 to 1.5
22 | C=CC1C[C@]1(NC(=O)[C@@H]1C[C@@H](Oc2cc(-c3ccccc3)nc3cc(OC)ccc23)CN1C(=O)[C@@H](NC(=O)OC)C(C)(C)C)C(=O)NS(=O)(=O)N1CCCCC1 (stereo partly drawn) [Compound 10] | 0.15 to 1.5 | < 0.15
